# According to ChEMBL document CHEMBL5614440, “Development of Novel Indole-Based Covalent Inhibitors of TEAD as Potential Antiliver Cancer Agents” (J Med Chem, 2024):
# The source made the active and inactive calls. The calls are words filed in the database; no cut-off is given here.
# Key:
# HEK293T = assay: Inhibition of TEAD (unknown origin) expressed in HEK293T cells transfected with 8xGTIIC-luciferase at 10 uM by dual luciferase reporter assay relative to control; assay type: cell-based; conditions: Homo sapiens
# Huh-7 [1] = assay: Antiproliferative activity against human Huh-7 cells at 10 uM incubated for 3 days by CCK8 assay; assay type: functional; conditions: time 3 day
# Huh-7 [2] = assay: Antiproliferative activity against human Huh-7 cells incubated for 3 days by CCK8 assay; assay type: functional, cell-based; conditions: Huh-7, 72 h
# [3] = (§1) Inhibition of TEAD transcription in human Huh-7 cells transfected with 8xGTIIC-luciferase by dual luciferase reporter assay; assay type: cell-based
# Huh-7 [4] = assay: as §1; assay type: cell-based
# Huh-7 [5] = assay: Inhibition of TEAD transcription in human Huh-7 cells transfected with 8xGTIIC-luciferase assessed as downregulation of CTGF protein expression by Western blotting analysis; assay type: cell-based; conditions: dose 1.25-15 µM
# Huh-7 [6] = assay: Inhibition of TEAD transcription in human Huh-7 cells transfected with 8xGTIIC-luciferase assessed as downregulation of CYR61 mRNA expression incubated for 24 hrs by RT-PCR analysis; assay type: cell-based; conditions: dose 0.5-15 µM
# HepG2 [7] = assay: Inhibition of TEAD transcription in human HepG2 cells assessed as downregulation of CTGF mRNA expression incubated for 24 hrs by RT-PCR analysis; assay type: cell-based
# HepG2 [8] = assay: Inhibition of TEAD transcription in human HepG2 cells assessed as downregulation of CYR61 mRNA expression incubated for 24 hrs by RT-PCR analysis; assay type: cell-based; conditions: dose 0.5-15 µM
# HepG2 [9] = assay: Antiproliferative activity against human HepG2 cells incubated for 3 days by CCK8 assay; assay type: functional, cell-based; conditions: HepG2, 72 h
# Hs-578T = assay: Antiproliferative activity against human Hs-578T cells incubated for 3 days by CCK8 assay; assay type: functional, cell-based; conditions: 72 h
# NCI-H226 [10] = assay: Antiproliferative activity against human NCI-H226 cells incubated for 3 days by CCK8 assay; assay type: functional, cell-based; conditions: NCI-H226, 72 h
# NCI-H2452 = assay: Antiproliferative activity against human NCI-H2452 cells incubated for 3 days by CCK8 assay; assay type: functional, cell-based; conditions: NCI-H2452, 72 h
# [11] = target: Transcriptional enhancer factor TEF-4 (Homo sapiens) (UniProt Q15562); assay: Covalent binding affinity to human TEAD2-YBD (217 to 447 residues) assessed as change in protein mass at 50 uM incubated for 15 hrs by mass spectrometry analysis
# Chain of Transcriptional enhancer factor TEF-4 (Homo sapiens) (Q15562 whole entry, the tested form may be a part): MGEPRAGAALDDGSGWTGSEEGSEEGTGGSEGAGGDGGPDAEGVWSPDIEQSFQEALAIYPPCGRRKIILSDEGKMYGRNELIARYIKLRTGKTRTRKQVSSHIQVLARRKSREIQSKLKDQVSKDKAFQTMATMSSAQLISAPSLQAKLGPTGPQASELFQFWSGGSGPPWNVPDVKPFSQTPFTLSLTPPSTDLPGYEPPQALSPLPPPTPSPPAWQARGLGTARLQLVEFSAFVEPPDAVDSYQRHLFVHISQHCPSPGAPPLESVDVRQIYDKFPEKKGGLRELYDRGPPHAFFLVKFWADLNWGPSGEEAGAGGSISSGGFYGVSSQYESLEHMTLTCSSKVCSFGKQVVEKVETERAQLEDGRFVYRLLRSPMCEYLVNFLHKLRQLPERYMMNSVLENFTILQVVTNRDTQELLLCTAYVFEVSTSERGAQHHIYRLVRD
# Homo sapiens = species on record: Homo sapiens; assay: Covalent binding affinity to human TEAD2-YBD C380S mutant variant assessed as change in protein mass at 50 uM incubated for 15 hrs by mass spectrometry analysis
# NCI-H226 [12] = assay: Disruption of YAP to TEAD protein-protein interaction in human NCI-H226 cells at 1 uM incubated for 24 hrs by Coimmunoprecipitation method; assay type: cell-based
# NCI-H226 [13] = assay: Disruption of YAP to TEAD protein-protein interaction in human NCI-H226 cells at 2.5 uM incubated for 24 hrs by Coimmunoprecipitation method; assay type: cell-based
# NCI-H226 [14] = assay: Disruption of TAZ to TEAD protein-protein interaction in human NCI-H226 cells at 1 to 2.5 uM incubated for 24 hrs by Coimmunoprecipitation method; assay type: cell-based; conditions: dose 1-2.5 µM
# Huh-7 [15] = assay: Induction of cell cycle arrest in human Huh-7 cells assessed as increase in G1 phase cells at 5 to 10 uM incubated for 48 hrs by propidium iodide staining based flow cytometry (reference value: 36.4%); assay type: functional; conditions: dose 5-10 µM
# Huh-7 [16] = assay: Induction of cell cycle arrest in human Huh-7 cells assessed as decrease in S phase cells at 5 to 10 uM incubated for 48 hrs by propidium iodide staining based flow cytometry; assay type: functional; conditions: dose 5-10 µM
# Huh-7 [17] = assay: Induction of cell cycle arrest in human Huh-7 cells assessed as decrease in G2 phase cells at 5 to 10 uM incubated for 48 hrs by propidium iodide staining based flow cytometry; assay type: functional; conditions: dose 5-10 µM
# HepG2 [18] = assay: Induction of cell cycle arrest in human HepG2 cells assessed as accumulation of G1 phase cells at 5 to 10 uM incubated for 48 hrs by propidium iodide staining based flow cytometry; assay type: functional; conditions: dose 5-10 µM
# Huh-7 [19] = assay: Induction of apoptosis in human Huh-7 cells assessed as total apoptotic cells at 5 uM incubated for 48 hrs by Annexin V/PI staining based flow cytometry analysis; assay type: functional
# Huh-7 [20] = assay: Induction of apoptosis in human Huh-7 cells assessed as total apoptotic cells at 10 uM incubated for 48 hrs by Annexin V/PI staining based flow cytometry analysis; assay type: functional
# HepG2 [21] = assay: Induction of apoptosis in human HepG2 cells assessed as total apoptotic cells at 10 uM incubated for 48 hrs by Annexin V/PI staining based flow cytometry analysis; assay type: functional
# Huh-7 [22] = assay: Antitumor activity against human Huh-7 cells xenografted in NSG mouse assessed as tumor growth inhibition at 50 mg/kg, ip administered every 3 days for 24 days and measured every 3 days; assay type: functional; conditions: Huh-7, 576 h, time 24 day, read-out: TGI
# Huh-7 [23] = assay: Antitumor activity against human Huh-7 cells xenografted in NSG mouse assessed as tumor growth inhibition at 50 mg/kg, ip administered every 3 days for 24 days in presence of sorafenib and measured every 3 days; assay type: functional; conditions: Huh-7, 576 h, time 24 day, read-out: TGI
# [24] = Toxicity in NSG mouse assessed as change in body weight at 50 mg/kg, ip administered every 3 days for 24 days in presence of sorafenib and measured every 3 days; assay type: organism-based; conditions: in vivo, 576 h, time 24 day
# Mus musculus [25] = assay: In vivo inhibition of TEAD transcription in NSG mouse xenografted with human Huh-7 cells assessed as decrease in CTGF expression at 50 mg/kg, ip administered every 3 days for 24 days by Western blotting analysis; assay type: functional, organism-based; conditions: time 24.0 day
# Mus musculus [26] = assay: In vivo inhibition of TEAD transcription in NSG mouse xenografted with human Huh-7 cells assessed as decrease in CYR61 expression at 50 mg/kg, ip administered every 3 days for 24 days by Western blotting analysis; assay type: functional, organism-based; conditions: time 24.0 day
# Hepatoblastoma cell line [27] = assay: Antitumor activity against C57BL/6 mouse hepatoblastoma assessed as reduction in tumor occurrence at 25 mg/kg, ip administered twice a week for 9 weeks and measured after 2 days post last drug treatment; assay type: functional, organism-based; conditions: time 65.0 day
# Hepatoblastoma cell line [28] = assay: Antitumor activity against C57BL/6 mouse hepatoblastoma assessed as reduction in tumor size at 25 mg/kg, ip administered twice a week for 9 weeks and measured after 2 days post last drug treatment; assay type: functional, organism-based; conditions: time 65.0 day
# Hepatoblastoma cell line [29] = assay: Antitumor activity against C57BL/6 mouse hepatoblastoma assessed as reduction in number of proliferating cells at 25 mg/kg, ip administered twice a week for 9 weeks and measured after 2 days post last drug treatment by Ki67 staining based immunohistochemistry assay; assay type: functional, organism-based; conditions: time 65.0 day
# Mus musculus [30] = assay: Downregulation of Ccnd1 mRNA expression in C57BL/6 mouse hepatoblastoma tumor at 25 mg/kg, ip administered twice a week for 9 weeks and measured after 2 days post last drug treatment by qRT-PCR analysis; assay type: functional, organism-based; conditions: time 65.0 day
# Mus musculus [31] = assay: Downregulation of CTGF mRNA expression in C57BL/6 mouse hepatoblastoma tumor at 25 mg/kg, ip administered twice a week for 9 weeks and measured after 2 days post last drug treatment by qRT-PCR analysis; assay type: functional, organism-based; conditions: time 65.0 day
# Mus musculus [32] = assay: Downregulation of Cyr61 mRNA expression in C57BL/6 mouse hepatoblastoma tumor at 25 mg/kg, ip administered twice a week for 9 weeks and measured after 2 days post last drug treatment by qRT-PCR analysis; assay type: functional, organism-based; conditions: time 65.0 day
# Mus musculus [33] = assay: Downregulation of Afp mRNA expression in C57BL/6 mouse hepatoblastoma tumor at 25 mg/kg, ip administered twice a week for 9 weeks and measured after 2 days post last drug treatment by qRT-PCR analysis; assay type: functional, organism-based; conditions: time 65.0 day
# Mus musculus [34] = assay: Downregulation of Gpc3 mRNA expression in C57BL/6 mouse hepatoblastoma tumor at 25 mg/kg, ip administered twice a week for 9 weeks and measured after 2 days post last drug treatment by qRT-PCR analysis; assay type: functional, organism-based; conditions: time 65.0 day
# Mus musculus [35] = assay: Downregulation of CTGF protein expression in C57BL/6 mouse hepatoblastoma tumor at 25 mg/kg, ip administered twice a week for 9 weeks and measured after 2 days post last drug treatment by Western blotting analysis; assay type: functional, organism-based; conditions: time 65.0 day
# Mus musculus [36] = assay: Downregulation of Cyr61 protein expression in C57BL/6 mouse hepatoblastoma tumor at 25 mg/kg, ip administered twice a week for 9 weeks and measured after 2 days post last drug treatment by Western blotting analysis; assay type: functional, organism-based; conditions: time 65.0 day
# [37] = Half life in Sprague-Dawley rat at 50 mg/kg, ip measured upto 24 hrs by LC-MS/MS analysis; assay type: ADME, organism-based; conditions: in vivo
# [38] = Tmax in Sprague-Dawley rat at 50 mg/kg, ip measured upto 24 hrs by LC-MS/MS analysis; assay type: ADME, organism-based; conditions: in vivo
# [39] = Cmax in Sprague-Dawley rat at 50 mg/kg, ip measured upto 24 hrs by LC-MS/MS analysis; assay type: ADME, organism-based; conditions: in vivo
# [40] = AUClast in Sprague-Dawley rat at 50 mg/kg, ip measured upto 24 hrs by LC-MS/MS analysis; assay type: ADME, organism-based; conditions: in vivo
# [41] = AUCinfinity in Sprague-Dawley rat at 50 mg/kg, ip measured upto 24 hrs by LC-MS/MS analysis; assay type: ADME, organism-based; conditions: in vivo
# [42] = MRTinfinity in Sprague-Dawley rat at 50 mg/kg, ip measured upto 24 hrs by LC-MS/MS analysis; assay type: ADME, organism-based; conditions: in vivo
smiles,measurement,setting,value
N#C/C(=C\c1c[nH]c2cc(Cl)c(OCc3cccc4ccccc34)cc12)C(N)=O,inhibition,HEK293T,51.3%
same,Activity,Huh-7 [1],70%
O=C(CCl)c1c[nH]c2cc(Cl)c(OCc3cccc(C(F)(F)F)c3)cc12,inhibition,HEK293T,93.6%
same,IC50,Huh-7 [2],900 nM
same,IC50,[3],629 nM
same,inhibition,Huh-7 [4],Dose-Dependent Effect
same,inhibition,Huh-7 [5],Dose-Dependent Effect
same,inhibition,Huh-7 [6],Dose-Dependent Effect
same,inhibition,HepG2 [7],Dose-Dependent Effect
same,inhibition,HepG2 [8],Dose-Dependent Effect
same,IC50,HepG2 [9],2400 nM
same,IC50,Hs-578T,2600 nM
same,IC50,NCI-H226 [10],400 nM
same,IC50,NCI-H2452,11000 nM
same,Activity,[11],Active
same,Activity,Homo sapiens,inactive
same,Activity,NCI-H226 [12],Active
same,Activity,NCI-H226 [13],100%
same,Activity,NCI-H226 [14],inactive
same,Activity,Huh-7 [15],58.2%
same,Activity,Huh-7 [16],Active
same,Activity,Huh-7 [17],Active
same,Activity,HepG2 [18],Active
same,Activity,Huh-7 [19],66.8%
same,Activity,Huh-7 [20],83.5%
same,Activity,HepG2 [21],69%
same,inhibition in vivo at 50 mg/kg,Huh-7 [22],75%
same,inhibition in vivo at 50 mg/kg,Huh-7 [23],93%
same,Activity,[24],Non-Toxic
same,inhibition,Mus musculus [25],Active
same,inhibition,Mus musculus [26],Active
same,Activity,Hepatoblastoma cell line [27],Active
same,Activity,Hepatoblastoma cell line [28],Active
same,Activity,Hepatoblastoma cell line [29],Active
same,Activity,Mus musculus [30],Active
same,Activity,Mus musculus [31],Active
same,Activity,Mus musculus [32],Active
same,Activity,Mus musculus [33],Active
same,Activity,Mus musculus [34],Active
same,Activity,Mus musculus [35],Active
same,Activity,Mus musculus [36],Active
same,half-life,[37],6.49 h
same,Tmax,[38],2.67 h
same,Cmax,[39],28 ng/mL
same,AUC(0-t) at 24 h,[40],175 ng·h/mL
same,AUC(0-inf),[41],208 ng·h/mL
same,MRT inf,[42],9.65 h
